Results as given in article PMC12775434, “Ultra-large virtual screening unveils potent agonists of the neuromodulatory orphan receptor GPR139” (Nature Communications, 2025).
Values joined by “and” are separate entries in the source; they are usually repeats but may differ in a detail not shown here. Equal values may be shown once.

Columns and labels:
Assay type in all cases: cell-based
GPR139 [1] = biological target: T1, GPR139 (Homo sapiens, UniProt Q6DWJ6); test: Ca2+ mobilization assay, agonist mode, stable GPR139-CHOk1 cell line; conditions: for EC50 / Emax: Supplementary Table 2, mean ± SEM; for EC50: read-out: pEC50 Ca2+ (converted); for Emax: normalized to Lundbeck Cmp 1a, read-out: Emax (%) Ca2+
T1 sequence (Q6DWJ6 1-353): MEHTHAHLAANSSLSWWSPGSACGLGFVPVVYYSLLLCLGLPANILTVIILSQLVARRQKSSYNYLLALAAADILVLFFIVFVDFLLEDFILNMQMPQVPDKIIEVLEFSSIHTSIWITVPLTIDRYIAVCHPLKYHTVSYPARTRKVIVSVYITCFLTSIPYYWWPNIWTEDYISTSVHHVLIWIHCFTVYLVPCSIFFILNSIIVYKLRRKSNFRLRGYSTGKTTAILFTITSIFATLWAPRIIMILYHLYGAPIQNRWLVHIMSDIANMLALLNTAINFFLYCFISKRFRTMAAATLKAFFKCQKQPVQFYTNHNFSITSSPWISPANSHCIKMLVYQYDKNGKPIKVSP
In short: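 Agonist activity of compounds is assessed in stably transfected CHO-K1 cells using the calcium dye Fluo-4 at 37 °C in HEPES-buffered HBSS (pH 7.4). Efficacy is expressed relative to the reference agonist Lundbeck Cmp 1a, set as 100%.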

GPR139 [2] = biological target: T1, GPR139; test: Ca2+ mobilization assay, antagonist mode (EC80 800 nM Lundbeck Cmp 1a after 20 min preincubation), GPR139-CHOk1; conditions: individual replicates (Supplementary Figure 4)
In short: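 Fluo-4-loaded GPR139-CHOk1 cells in HEPES-buffered HBSS (pH 7.4, 2.5 mM probenecid) given test compounds at 10 µM, then after 20 min challenged with 800 nM Lundbeck Cmp 1a (EC80). Calcium fluorescence read at 37 °C, 485/525 nm.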

[3] = biological target: T2, human muscarinic acetylcholine M1 receptor (M1R) (Homo sapiens, UniProt P11229); test: Ca2+ mobilization counter-screen in M1R-CHOk1 cells; conditions: individual replicates (Supplementary Figure 5)
T2 sequence (P11229 1-460): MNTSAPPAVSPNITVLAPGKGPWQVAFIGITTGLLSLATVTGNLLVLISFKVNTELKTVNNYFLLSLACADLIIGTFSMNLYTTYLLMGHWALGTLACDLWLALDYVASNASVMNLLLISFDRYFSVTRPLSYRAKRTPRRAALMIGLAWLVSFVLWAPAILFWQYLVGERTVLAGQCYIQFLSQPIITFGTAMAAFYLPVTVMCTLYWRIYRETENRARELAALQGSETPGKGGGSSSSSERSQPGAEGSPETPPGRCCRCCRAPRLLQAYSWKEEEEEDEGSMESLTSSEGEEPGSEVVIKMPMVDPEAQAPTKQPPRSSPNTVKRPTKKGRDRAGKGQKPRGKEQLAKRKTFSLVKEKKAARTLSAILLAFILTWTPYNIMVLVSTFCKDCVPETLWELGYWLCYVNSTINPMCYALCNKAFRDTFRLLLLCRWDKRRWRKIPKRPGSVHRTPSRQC
Experimental: Primary screening and pharmacological characterization of compounds were performed using a CHO-K1 cell line that stably expresses human GPR139 (GPR139-CHOk1). The GPR139-CHOk1 cell line was kindly provided by H. Lundbeck A/S, Denmark[24]. GPR139-CHOk1 cells were grown in Ham’s F-12 Kaighn’s Modification Medium (ThermoFisher #21127030) supplemented with 10% dialyzed fetal bovine serum (US origin, ThermoFisher #26400044), 100 units/mL Penicillin-Streptomycin (ThermoFisher #15140122), and 1 mg/mL Geneticin (ThermoFisher #11811031). […] M1R-CHOk1 cells were purchased from The Missouri S&T cDNA Resource Center (#CEM100TN00). M1R-CHOk1 cells were grown in Ham’s F12 Medium (ThermoFisher #21765029) supplemented with 10% fetal bovine serum (Brazilian origin, ThermoFisher #10270106), 100 units/mL Penicillin-Streptomycin, and 0.25 mg/mL Geneticin. HEK293A cells transiently transfected with GPR139 were used for additional pharmacological assessment of signaling pathways activated by GPR139. HEK239A cells were generously provided by Dr. Asuka Inoue, Tohoku University, Japan. HEK293A cells were grown in Dulbecco’s Modified Eagle Medium (ThermoFisher #31966047) supplemented with 10% dialyzed fetal bovine serum and 100 units/mL Penicillin-Streptomycin. Cell lines were maintained at 37 °C in humidified incubator equilibrated with 5% CO2.
30,000 GPR139- or M1R-CHOk1 cells/well were seeded in black clear bottom tissue culture treated 96-well plates (Greiner #655090) and grown for 20–24 h. Cells were washed with HEPES buffer (Hank’s Balanced Salt Solution (HBBS) supplemented with 20 mM HEPES, 1 mM MgCl2, and 1 mM CaCl2; pH 7.4). Cells were loaded with 50 µL of 2 µM Fluo-4 AM dye (ThermoFisher #F14202) in HEPES buffer supplemented with 2.5 mM probenecid and 0.01% Pluronic F-68 (ThermoFisher #24040032) for 1 h at 37 °C. Cells were washed with HEPES buffer. 50 µL HEPES buffer supplemented with 2.5 mM probenecid was added, and the cells were incubated for 10 min at 37 °C before measurement. 50 µL test compounds diluted in HEPES buffer from DMSO stocks (final DMSO concentration of maximally 0.3%) were added automatically after baseline measurements. The intracellular calcium mobilization was measured on a FlexStation 3 Multimode Microplate Reader (Molecular Devices) at 37 °C with filters for excitation of 485 nm and emission of 525 nm.

[4] = Agonist mode, individual replicates (Supplementary Figure 4)
[5] = log [Compound] M = -4.5, individual replicate columns
[6] = log [Compound] M = -5.0, individual replicate columns
[7] = log [Compound] M = -5.5, individual replicate columns
[8] = log [Compound] M = -6.0, individual replicate columns
[9] = log [Compound] M = -6.5, individual replicate columns
[10] = log [Compound] M = -7.0, individual replicate columns
[11] = log [Compound] M = -7.5, individual replicate columns
[12] = log [Compound] M = -8.0, individual replicate columns
[13] = log [Compound] M = -8.5, individual replicate columns
[14] = log [Compound] M = -9.0, individual replicate columns

EC50 (GPR139 [1]) [nM] | Emax (GPR139 [1]) [%] | SMILES | Ca2+ signal (% of Cmp 1a) (GPR139 [1]; [4]) | Ca2+ signal (% of Cmp 1a) (GPR139 [1]; [5]) | Ca2+ signal (% of Cmp 1a) (GPR139 [1]; [6]) | Ca2+ signal (% of Cmp 1a) (GPR139 [1]; [7]) | Ca2+ signal (% of Cmp 1a) (GPR139 [1]; [8]) | Ca2+ signal (% of Cmp 1a) (GPR139 [1]; [9]) | Ca2+ signal (% of Cmp 1a) (GPR139 [1]; [10]) | Ca2+ signal (% of Cmp 1a) (GPR139 [1]; [11]) | Ca2+ signal (% of Cmp 1a) (GPR139 [1]; [12]) | Ca2+ signal (% of Cmp 1a) (GPR139 [1]; [13]) | Ca2+ signal (% of Cmp 1a) (GPR139 [1]; [14]) | Ca2+ signal (% of Cmp 1a) (GPR139 [2]) | Ca2+ signal (% of Carbachol) [3] | change in potency with larger substituents on the thiophene ring (GPR139 [1]; Ca2+ mobilization)
5010 | 101 ± 5 | COc1ccc(-c2nc(CC(=O)NC(C)c3ccccc3)no2)nc1 (stereo not shown) [Compound 1.35, COC1=CN=C(C2=NC(CC(NC(C3=CC=CC=C3)C)=O)=NO2)C=C1] | 54 % of Cmp 1a and 78 % of Cmp 1a and 29 % of Cmp 1a | 94 % of Cmp 1a and 90 % of Cmp 1a and 98 % of Cmp 1a and 75 % of Cmp 1a | 78 % of Cmp 1a and 80 % of Cmp 1a (2×) and 38 % of Cmp 1a | 47 % of Cmp 1a and 55 % of Cmp 1a and 66 % of Cmp 1a and 27 % of Cmp 1a | 20 % of Cmp 1a and 21 % of Cmp 1a and 51 % of Cmp 1a and 17 % of Cmp 1a | -3 % of Cmp 1a and 8 % of Cmp 1a and 26 % of Cmp 1a and 20 % of Cmp 1a | 1.67 % of Cmp 1a and -1.67 % of Cmp 1a and 26 % of Cmp 1a and 31 % of Cmp 1a | 2.67 % of Cmp 1a and 5.33 % of Cmp 1a and 16 % of Cmp 1a and 34 % of Cmp 1a | -2 % of Cmp 1a and 11 % of Cmp 1a and 29 % of Cmp 1a and 25 % of Cmp 1a | -6 % of Cmp 1a and 3 % of Cmp 1a and 17 % of Cmp 1a and -0.333 % of Cmp 1a | 2 % of Cmp 1a and 4.67 % of Cmp 1a and 12 % of Cmp 1a and -2 % of Cmp 1a | 28 % of Cmp 1a and 18 % of Cmp 1a and 35 % of Cmp 1a | 7 % of Carbachol and 14 % of Carbachol and 10 % of Carbachol | –
200 | 105 ± 10 | Cc1csc(-c2nc(CC(=O)NC(C)c3ccccc3)no2)c1 (stereo not shown) [Compound 1.11, CC(C1=CC=CC=C1)NC(CC2=NOC(C3=CC(C)=CS3)=N2)=O] | 83 % of Cmp 1a and 63 % of Cmp 1a and 71 % of Cmp 1a | 119 % of Cmp 1a and 103 % of Cmp 1a and 72 % of Cmp 1a and 99 % of Cmp 1a | 117 % of Cmp 1a and 110 % of Cmp 1a and 94 % of Cmp 1a and 97 % of Cmp 1a | 109 % of Cmp 1a and 87 % of Cmp 1a and 67 % of Cmp 1a and 96 % of Cmp 1a | 94 % of Cmp 1a and 70 % of Cmp 1a and 59 % of Cmp 1a and 79 % of Cmp 1a | 69 % of Cmp 1a and 58 % of Cmp 1a and 32 % of Cmp 1a and 65 % of Cmp 1a | 58 % of Cmp 1a and 48 % of Cmp 1a and 20 % of Cmp 1a and 43 % of Cmp 1a | 38 % of Cmp 1a and -18 % of Cmp 1a and -19 % of Cmp 1a and 30 % of Cmp 1a | 31 % of Cmp 1a and 1.33 % of Cmp 1a and -4 % of Cmp 1a and 6.33 % of Cmp 1a | 6 % of Cmp 1a and 1.67 % of Cmp 1a and 4.67 % of Cmp 1a and 3.33 % of Cmp 1a | 10 % of Cmp 1a and 7 % of Cmp 1a and -2.67 % of Cmp 1a and 1.33 % of Cmp 1a | 0 % of Cmp 1a and -3 % of Cmp 1a and -25 % of Cmp 1a | -8 % of Carbachol and 27 % of Carbachol and -10 % of Carbachol | –
1580 | 67 ± 4 | CC(C)c1ccc(-c2nc(CC(=O)NC(C)c3ccccc3)no2)s1 (stereo not shown) [Compound 1.41, CC(C)C1=CC=C(S1)C2=NC(CC(=O)NC(C)C=3C=CC=CC3)=NO2] | 66 % of Cmp 1a and 76 % of Cmp 1a and 60 % of Cmp 1a | 69 % of Cmp 1a and 62 % of Cmp 1a and 57 % of Cmp 1a | 70 % of Cmp 1a and 71 % of Cmp 1a and 40 % of Cmp 1a | 56 % of Cmp 1a and 47 % of Cmp 1a and 25 % of Cmp 1a | 34 % of Cmp 1a and 27 % of Cmp 1a and 22 % of Cmp 1a | 15 % of Cmp 1a and 0.333 % of Cmp 1a and 5.33 % of Cmp 1a | 13 % of Cmp 1a and -9 % of Cmp 1a and 4.33 % of Cmp 1a | -1.33 % of Cmp 1a and -6.33 % of Cmp 1a and 3 % of Cmp 1a | -4.33 % of Cmp 1a and 0 % of Cmp 1a (2×) | 0 % of Cmp 1a and -2.67 % of Cmp 1a and 0.333 % of Cmp 1a | -1.67 % of Cmp 1a and -4.33 % of Cmp 1a and -2.33 % of Cmp 1a | 24 % of Cmp 1a and 11 % of Cmp 1a and -0.667 % of Cmp 1a | -18 % of Carbachol and 8 % of Carbachol and -8 % of Carbachol | three-fold reduction to a complete loss of activity
2000 | 97 ± 3 | Cc1ncc(-c2nc(CC(=O)NC(C)c3ccccc3)no2)o1 (stereo not shown) [Compound 1.25, CC(C1=CC=CC=C1)NC(CC2=NOC(C3=CN=C(O3)C)=N2)=O] | 86 % of Cmp 1a and 76 % of Cmp 1a and 90 % of Cmp 1a | 107 % of Cmp 1a and 102 % of Cmp 1a and 85 % of Cmp 1a and 96 % of Cmp 1a and 104 % of Cmp 1a | 92 % of Cmp 1a (2×) and 95 % of Cmp 1a and 77 % of Cmp 1a and 93 % of Cmp 1a | 62 % of Cmp 1a and 74 % of Cmp 1a and 52 % of Cmp 1a and 93 % of Cmp 1a and 64 % of Cmp 1a | 43 % of Cmp 1a and 38 % of Cmp 1a and 31 % of Cmp 1a and 47 % of Cmp 1a and 36 % of Cmp 1a | 17 % of Cmp 1a and 13 % of Cmp 1a and 4.22 % of Cmp 1a and 19 % of Cmp 1a and 9 % of Cmp 1a | 7 % of Cmp 1a and 2.6 % of Cmp 1a and -3 % of Cmp 1a and 12 % of Cmp 1a and 3.24 % of Cmp 1a | 10 % of Cmp 1a and 2.43 % of Cmp 1a and 2 % of Cmp 1a and 1.64 % of Cmp 1a and 4 % of Cmp 1a | 3 % of Cmp 1a and 6 % of Cmp 1a (2×) and 5 % of Cmp 1a and 4.25 % of Cmp 1a | -0.76 % of Cmp 1a and -1.77 % of Cmp 1a and 0.877 % of Cmp 1a and 5.4 % of Cmp 1a and 0.153 % of Cmp 1a | 0.813 % of Cmp 1a and 0.273 % of Cmp 1a and -1 % of Cmp 1a and 1 % of Cmp 1a and 2.54 % of Cmp 1a | 3 % of Cmp 1a and 15 % of Cmp 1a and 5.33 % of Cmp 1a | 5.35 % of Carbachol and 0.226 % of Carbachol and -1.63 % of Carbachol | –
